# Source: patent publication US20070225171A1 (priority 2001, published 2007)
# Like-named read-outs stand apart in the source and are kept apart here.
# Legend:
# [1] = tested on: Plants expressing the dioxygenase encoded by the tfdA gene; conditions: reported in Llewellyn and Last 1996 and U.S. Pat. Nos. 6,100,446 and 6,153,401; cited from earlier work
# [2] = tested on: Transgenic cotton plants (transformed with tfdA gene); assay: Seed cotton yield after spraying 2,4-D amine on transgenic cotton; assay type: in vivo; conditions: for SEED COTTON YIELD: herbicide rate 1 lb/acre, average of 4 replications
# Description: Transgenic cotton plants (transformed as described in Bayley et al., Theor. Appl. Genet., 83:645-649 (1992)) were grown from transgenic seed obtained from USDA, Lubbock, Tex. The cotton plants were sprayed with 2,4-D amine at 1 lb of active ingredient per acre.
# [3] = tested on: Plants expressing the dioxygenase encoded by the tfdA gene; assay: Herbicide tolerance of plants expressing the tfdA dioxygenase; assay type: in vivo; conditions: at lower levels of herbicide than for 2,4-D; data not shown
# From the text: See, e.g., Llewellyn and Last, in Herbicide-Resistant Crops Chapter 10, pages 159-174 (Duke, ed., CRC Lewis Publishers 1996). Preferably, additional bacterial codons of the tfdA coding sequence are replaced by plant-preferred codons to obtain better expression of the encoded dioxygenase. […] See, e.g., Llewellyn and Last, in Herbicide-Resistant Crops Chapter 10, pages 159-174 (Duke, ed., CRC Lewis Publishers 1996) and U.S. Pat. Nos. 6,100,446 and 6,153,401.
smiles,measurement,setting,value
"O=C(O)COc1cc(Cl)c(Cl)cc1Cl [2,4,5-T, 2,4,5-trichlorophenoxyacetic acid]",tolerance of plants to the herbicide,[1],not to be tolerant
"CNC.O=C(O)COc1ccc(Cl)cc1Cl [2,4-D amine]",effect on yield of cotton,[2]; 1 lb of active ingredient per acre,significantly increased the yield of cotton
same,"PERCENT INCREASE, AVERAGE","[2]; average of the seven cotton lines, 1 lb/acre vs rate 0",13.0
same,PERCENT INCREASE,"[2]; cotton line X-2600, 1 lb/acre vs rate 0",8.0
same,SEED COTTON YIELD,[2]; cotton line X-2600,2145 Pounds/acre
same,PERCENT INCREASE,"[2]; cotton line X-2603, 1 lb/acre vs rate 0",7.4
same,SEED COTTON YIELD,[2]; cotton line X-2603,2790 Pounds/acre
same,PERCENT INCREASE,"[2]; cotton line X-2606, 1 lb/acre vs rate 0",19.5
same,SEED COTTON YIELD,[2]; cotton line X-2606,3067 Pounds/acre
same,PERCENT INCREASE,"[2]; cotton line X-2609, 1 lb/acre vs rate 0",−1.1
same,SEED COTTON YIELD,[2]; cotton line X-2609,2301 Pounds/acre
same,PERCENT INCREASE,"[2]; cotton line X-2614, 1 lb/acre vs rate 0",33.6
same,SEED COTTON YIELD,[2]; cotton line X-2614,2660 Pounds/acre
same,PERCENT INCREASE,"[2]; cotton line X-2615, 1 lb/acre vs rate 0",15.3
same,SEED COTTON YIELD,[2]; cotton line X-2615,2380 Pounds/acre
same,PERCENT INCREASE,"[2]; cotton line X-2619, 1 lb/acre vs rate 0",8.7
same,SEED COTTON YIELD,[2]; cotton line X-2619,2235 Pounds/acre
"O=C(O)CCCOc1ccc(Cl)cc1Cl [2,4-DB, 2,4-dichlorophenoxybutyric acid]",tolerance of plants to the herbicide,[3],tolerant
"O=C(O)COc1ccc(Cl)cc1 [4-CPA, 4-chlorophenoxyacetic acid]",tolerance of plants to the herbicide,[1],tolerant
"Cc1cc(Cl)ccc1OCC(=O)O [MCPA, 2-methyl-4-chlorophenoxyacetic acid]",tolerance of plants to the herbicide,[3],tolerant
